Source: US20220370385A1, “COMPOSITIONS FOR USE IN INHIBITING SRC KINASE AND TREATING AND PREVENTING ASSOCIATED DISORDERS” (Enzene Biosciences Ltd., priority 2019, published 2022)
“Also recorded” adds a separate entry of the source.

How the values were obtained:
[1] = Repeated dose 7-day dose range finding study, intravenous bolus injection; format: in vivo; settings: for Morbidity % / Morbidity No / Mortality % / Mortality No: i.v. bolus 7 days
Experimental: Repeated dose 7-day dose range finding study (DRF) of E05 through intravenous bolus injection was carried out in Wistar rats.

[2] = Pharmacokinetic study after single oral administration; format: in vivo; settings: Sprague Dawley, rat, plasma, male rats
Experimental: A study to determine the pharmacokinetics of E05 after single oral (10 mg/kg) administration in male Sprague Dawley rats was carried out. […] The absolute oral bioavailability of Small molecule was 80% (FIG. 18).

SRC kinase = biological target: T1, SRC kinase (Homo sapiens, UniProt P12931); experiment: Kinase inhibitor screening assay (Promega kinase selectivity profiling, ADP-Glo); format: biochemical; parameters: dose or concentration left out as unconfirmed; settings: panel of 16 tyrosine kinases
T1 construct: purchased Promega
T1 sequence (P12931 whole entry): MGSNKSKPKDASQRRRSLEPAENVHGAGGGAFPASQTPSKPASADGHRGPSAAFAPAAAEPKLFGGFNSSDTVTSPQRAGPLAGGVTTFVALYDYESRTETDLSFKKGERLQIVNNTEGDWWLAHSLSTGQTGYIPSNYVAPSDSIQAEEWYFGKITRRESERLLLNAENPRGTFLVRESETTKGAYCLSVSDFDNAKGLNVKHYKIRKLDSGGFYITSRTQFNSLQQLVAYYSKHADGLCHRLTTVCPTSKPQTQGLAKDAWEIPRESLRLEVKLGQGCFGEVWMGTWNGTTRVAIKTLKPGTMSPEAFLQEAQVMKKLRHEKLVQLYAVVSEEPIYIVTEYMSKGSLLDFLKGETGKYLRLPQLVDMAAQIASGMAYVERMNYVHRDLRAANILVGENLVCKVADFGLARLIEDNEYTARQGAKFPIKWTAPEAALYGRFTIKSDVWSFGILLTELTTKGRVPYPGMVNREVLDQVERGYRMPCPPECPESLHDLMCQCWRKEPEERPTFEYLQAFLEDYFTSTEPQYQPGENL
Experimental: The kinase selectivity profiling systems from Promega was used to check the inhibitory activity of the purified compound against the broad panel of Tyrosine kinases. The kinase selectivity assays were assembled in a 384-well plate using 1 μl of the purified compound ([…]), 2 μl of each kinase working stock and 2 μl of the corresponding ATP/Substrate working stock as per the manufacturer protocol and kinase activity was quantified using the ADP-Glo™ kinase assay from Promega. The reaction assembled with kinase and corresponding ATP/Substrate without the purified compound was used as a positive control.

[3] = system: colon cancer cell line HCT116; experiment: Anti-proliferative activity in HCT116; format: cell-based
MDA-MB-468 cells = experiment: MDA-MB-468 cell viability, CellTiter-Glo, 24 hrs; format: cell-based, human; settings: Homo sapiens, 24 hrs incubation
Experimental: MDA-MB-468 cells, isolated from a pleural effusion of a patient with metastatic adenocarcinoma of the breast, is a triple negative breast cancer (TNBC) cell line. The IC 50 value of E05 or lapatinib (Sigma) or the structural analogues of E05 were tested in this cell line.
Briefly, MDA-MB-468 cells (ATCC #HTB-32) were seeded with a density of 5,000 cells per well in a 96 well white plate (Costar Cat #3917) in DMEM media supplemented with 10% FBS (assay medium). The plates were incubated at 37° C., 5% CO2 for 24 hr. E05 and analogues were diluted in the assay medium and added to the respective wells of the assay plate. The plates were further incubated at 37° C., 5% CO2 for 24 hrs. After the incubation, the cell viability was assessed using CellTiter-Glo® and the plates were read for luminescence using Cytation 5 (Biotek). The relative luminescence unit (RLU) obtained was plotted against the concentration and EC50 values were estimated using Graphpad Prism 5 software (FIG. 15 and Table 2).

[4] = Repeated dose 7-day dose range finding study, oral gavage; format: in vivo
Experimental: Repeated dose 7-day dose range finding study (DRF) of E05 through oral gavage was carried out in Wistar rats.

[5] = Maximum tolerated dose study, oral gavage; format: in vivo; settings: Female G1 175 mg/kg b. wt., single oral gavage
Experimental: A maximum tolerated dose (MTD) study was carried out with E05. In MTD study, group of 3 male and 3 female rats were dosed at 175 (group 1), 550 (group 2), 1750 (group 3) and 2000 (group 4) mg/kg b. wt.

[6] = Female G2 250 mg/kg b. wt., oral gavage 7 days
[7] = Female G3 500 mg/kg b. wt., oral gavage 7 days
[8] = Female G4 1000 mg/kg b. wt., oral gavage 7 days
[9] = Male G2 250 mg/kg b. wt., oral gavage 7 days
[10] = Male G3 500 mg/kg b. wt., oral gavage 7 days
[11] = Male G4 1000 mg/kg b. wt., oral gavage 7 days

## O=C(O)CCc1ccc(O)c(O)c1 [E05, 3-(3,4-Dihydroxyphenyl) propanoic acid]
[1]; Female G2 125 mg/kg b. wt
  Morbidity %: 0%
  Morbidity No: 0
  Mortality %: 0%
  Mortality No: 0
[1]; Female G3 250 mg/kg b. wt
  Morbidity %: 0%
  Morbidity No: 0
  Mortality %: 0%
  Mortality No: 0
[1]; Female G4 500 mg/kg b. wt
  Morbidity %: 0%
  Morbidity No: 0
  Mortality %: 0%
  Mortality No: 0
[1]; Male G2 125 mg/kg b. wt
  Morbidity %: 0%
  Morbidity No: 0
  Mortality %: 0%
  Mortality No: 0
[1]; Male G3 250 mg/kg b. wt
  Morbidity %: 0%
  Morbidity No: 0
  Mortality %: 0%
  Mortality No: 0
[1]; Male G4 500 mg/kg b. wt
  Morbidity %: 0%
  Morbidity No: 0
  Mortality %: 0%
  Mortality No: 0
[1]; up to 500 mg/kg b. wt., daily intravenous bolus, 7 consecutive days
  systemic toxicity: did not produce any systemic toxicity
[2]; oral 10 mg/kg, read-out: absolute oral bioavailability
  bioavailability: 80%
[2]; single oral gavage 10 mg/kg
  AUC(0-t): 151 ng·h/mL
  Cmax: 306 ng/mL
[2]; single oral gavage 10 mg/kg, read-out: mean time to reach peak plasma concentration (Tmax)
  Tmax: 15 min
SRC kinase
  SRC kinase activity: inhibited
[3]
  inhibition of growth: dose dependent response; also recorded: dose dependent inhibition of growth
MDA-MB-468 cells
  EC50: 86.1 µM
[4]; [6]
  Morbidity %: 0%
  Morbidity No: 0
  Mortality %: 0%
  Mortality No: 0
[4]; [7]
  Morbidity %: 0%
  Morbidity No: 0
  Mortality %: 0%
  Mortality No: 0
[4]; [8]
  Morbidity %: 0%
  Morbidity No: 0
  Mortality %: 0%
  Mortality No: 0
[4]; [9]
  Morbidity %: 0%
  Morbidity No: 0
  Mortality %: 0%
  Mortality No: 0
[4]; [10]
  Morbidity %: 0%
  Morbidity No: 0
  Mortality %: 0%
  Mortality No: 0
[4]; [11]
  Morbidity %: 0%
  Morbidity No: 0
  Mortality %: 0%
  Mortality No: 0
[4]; male and female rats, oral gavage 7 days
  food consumption, organ weight and relative organ weight: No treatment-related changes
[4]; rat, in vivo, po
  mortality, morbidity or clinical sign: no mortality, morbidity or clinical sign
[4]; up to 1000 mg/kg b. wt., orally through gavage, 7 consecutive days
  toxicity: did not produce any toxicity
[5]
  Morbidity on Experimental Day 1: 0
  Morbidity on Experimental Day 2: 0
  Morbidity on Experimental Day 3: 0
  Morbidity on Experimental Day 4: 0
